Assay results from PubChem BioAssay (NCI).
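Test compounds were applied to cells in 96-well plates for 48 hours at 5 doses. GI50 = concentration required for 50% inhibition of growth. At the TGI there is no net growth.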

Columns and labels:
Assay in all cases: DTP human tumour cell line panel, 48 h
CAKI-1 renal = tested on: CAKI-1 renal
SF-539 CNS = tested on: SF-539 CNS
SF-295 CNS = tested on: SF-295 CNS
OVCAR-8 ovarian = tested on: OVCAR-8 ovarian
UO-31 renal = tested on: UO-31 renal
786-0 renal = tested on: 786-0 renal
OVCAR-4 ovarian = tested on: OVCAR-4 ovarian
LOX IMVI melanoma = tested on: LOX IMVI melanoma
SK-MEL-28 melanoma = tested on: SK-MEL-28 melanoma
MALME-3M melanoma = tested on: MALME-3M melanoma

CC1(C)CC2=NO[Se]3=C2C(=NO3)C1
TGI (CAKI-1 renal): 11.4 µM | TGI (SF-539 CNS): 5.75 µM | TGI (SF-295 CNS): 7.6 µM | TGI (OVCAR-8 ovarian): 16.4 µM | TGI (UO-31 renal): 8.73 µM | TGI (786-0 renal): 12.4 µM | TGI (OVCAR-4 ovarian): 21.7 µM | TGI (LOX IMVI melanoma): 9.39 µM | TGI (SK-MEL-28 melanoma): 16.6 µM

O=C1c2ccccc2N1C(=O)c1ccccc1[N+](=O)[O-]
TGI (CAKI-1 renal): > 100 µM | TGI (SF-539 CNS): > 100 µM | TGI (OVCAR-8 ovarian): > 100 µM | TGI (UO-31 renal): > 100 µM | TGI (786-0 renal): > 100 µM | TGI (OVCAR-4 ovarian): > 100 µM | TGI (MALME-3M melanoma): > 100 µM | TGI (LOX IMVI melanoma): 81.6 µM | TGI (SK-MEL-28 melanoma): > 100 µM

c1cc(OCCCCCOc2cccc(-c3nc4ccccc4[nH]3)c2)cc(-c2nc3ccccc3[nH]2)c1
GI50 (CAKI-1 renal): 1.79 µM | TGI (CAKI-1 renal): 8.65 µM | GI50 (SF-539 CNS): 5.08 µM | TGI (SF-539 CNS): > 100 µM | GI50 (SF-295 CNS): 1.65 µM | TGI (SF-295 CNS): 6.57 µM | GI50 (OVCAR-8 ovarian): 2.53 µM | TGI (OVCAR-8 ovarian): 6.15 µM | GI50 (786-0 renal): 2.68 µM | TGI (786-0 renal): > 100 µM | GI50 (OVCAR-4 ovarian): 2.03 µM | TGI (OVCAR-4 ovarian): > 100 µM | GI50 (MALME-3M melanoma): 1.87 µM | TGI (MALME-3M melanoma): 5.02 µM | GI50 (LOX IMVI melanoma): 2.19 µM | TGI (LOX IMVI melanoma): 6.84 µM | GI50 (SK-MEL-28 melanoma): 2.82 µM | TGI (SK-MEL-28 melanoma): > 100 µM

CC(C)CCCC(C)C1CCC2C3CC([N+](=O)[O-])=C4CC(O)CCC4(C)C3CCC12C (stereo unspecified)
TGI (CAKI-1 renal): 66 µM | TGI (SF-539 CNS): 28.9 µM | TGI (SF-295 CNS): 30 µM | TGI (OVCAR-8 ovarian): 47.4 µM | TGI (786-0 renal): 33 µM | TGI (OVCAR-4 ovarian): 43 µM | TGI (MALME-3M melanoma): 39.2 µM | TGI (LOX IMVI melanoma): 36.6 µM | TGI (SK-MEL-28 melanoma): 35.2 µM

CCOC(=O)C#Cc1c(C(=O)OCC)nnn1[C@@H]1O[C@H](COC)[C@@H](OC)[C@H]1OC
GI50 (CAKI-1 renal): 1.74 µM | TGI (CAKI-1 renal): 3.14 µM | GI50 (SF-295 CNS): > 100 µM | TGI (SF-295 CNS): > 100 µM | GI50 (OVCAR-8 ovarian): 6.94 µM | TGI (OVCAR-8 ovarian): 21.7 µM | GI50 (UO-31 renal): 1.88 µM | TGI (UO-31 renal): 4.38 µM | GI50 (786-0 renal): 13.3 µM | TGI (786-0 renal): 26.7 µM | GI50 (OVCAR-4 ovarian): 2.02 µM | TGI (OVCAR-4 ovarian): 4.43 µM | GI50 (MALME-3M melanoma): 1.95 µM | TGI (MALME-3M melanoma): 3.9 µM | GI50 (LOX IMVI melanoma): 1.16 µM | TGI (LOX IMVI melanoma): 2.58 µM | GI50 (SK-MEL-28 melanoma): 3.49 µM | TGI (SK-MEL-28 melanoma): 12.8 µM

O=[N+]([O-])c1ccc(/C=C(/c2ccc([N+](=O)[O-])o2)S(=O)(=O)c2ccccc2)cc1
TGI (CAKI-1 renal): > 100 µM | TGI (SF-539 CNS): 98.3 µM | TGI (SF-295 CNS): > 100 µM | TGI (OVCAR-8 ovarian): > 100 µM | TGI (UO-31 renal): > 100 µM | TGI (786-0 renal): > 100 µM | TGI (OVCAR-4 ovarian): > 100 µM | TGI (MALME-3M melanoma): 87.5 µM | TGI (SK-MEL-28 melanoma): > 100 µM

O=S(=O)(O)C(c1ccccc1)C(O)c1ccccc1 (stereo unspecified)
TGI (CAKI-1 renal): > 100 µM | TGI (SF-295 CNS): > 100 µM | TGI (OVCAR-8 ovarian): > 100 µM | TGI (UO-31 renal): > 100 µM | TGI (786-0 renal): > 100 µM | TGI (OVCAR-4 ovarian): > 100 µM | TGI (MALME-3M melanoma): > 100 µM | TGI (LOX IMVI melanoma): > 100 µM | TGI (SK-MEL-28 melanoma): > 100 µM

Cc1ccccc1NC(=O)CC(=O)NNCC(=O)Nc1nnc(-c2ccccc2)s1
TGI (CAKI-1 renal): > 100 µM | TGI (SF-539 CNS): > 100 µM | TGI (SF-295 CNS): > 100 µM | TGI (OVCAR-8 ovarian): > 100 µM | TGI (UO-31 renal): > 100 µM | TGI (786-0 renal): > 100 µM | TGI (OVCAR-4 ovarian): 33.5 µM | TGI (LOX IMVI melanoma): > 100 µM | TGI (SK-MEL-28 melanoma): > 100 µM

O=C(NO)c1ccc(CNc2cccc3nc(C4CC4)n(-c4ccccc4)c(=O)c23)cc1
GI50 (CAKI-1 renal): 2.12 µM | TGI (CAKI-1 renal): 7.51 µM | GI50 (SF-539 CNS): 1.71 µM | TGI (SF-539 CNS): 3.53 µM | GI50 (OVCAR-8 ovarian): 1.65 µM | TGI (OVCAR-8 ovarian): 5.82 µM | GI50 (UO-31 renal): 1.45 µM | TGI (UO-31 renal): 2.96 µM | GI50 (786-0 renal): 2.18 µM | TGI (786-0 renal): 5.2 µM | GI50 (OVCAR-4 ovarian): 2.28 µM | TGI (OVCAR-4 ovarian): 21.9 µM | GI50 (MALME-3M melanoma): 2.05 µM | TGI (MALME-3M melanoma): 7.61 µM | GI50 (SK-MEL-28 melanoma): 2.01 µM | TGI (SK-MEL-28 melanoma): 4.26 µM
